# Assays:
# [1] = Metabolic stability assay, human liver microsome and homogenate incubations; assay type: in vitro ADME; details: human liver homogenate or microsomes
# Method: Metabolic Stability Assay The in vitro metabolic stability of the compounds of the invention was determined for exemplified compounds using human liver microsome and homogenate incubations. The incubation time points used with or without appropriate cofactors were 0 min and 60 min. Samples were collected at both time points and substrates were detected using LC/PDA/TOF-MS. In vitro metabolic stability (% remaining after 60 min in human liver homogenate or microsomes) of the compounds were calculated and the results are summarized in Table 3.
# [2] = biological target: T1, Recombinant Human 17β-HSD1 (Homo sapiens, UniProt P14061); test: Inhibition of recombinant human 17β-HSD1 (conversion of 3H-estrone to estradiol, HPLC); assay type: biochemical; details: inhibitor at 1 μM; 30 nM estrone, 1 mM NADPH, 30 min at RT; read-out: 17β-HDS1 Inhibition % at 1 μM
# T1 construct: made in house; host or cells: Sd9 (Sf9) insect cells, baculovirus (Bac to Bac Expression System)
# T1 sequence (P14061 1-328): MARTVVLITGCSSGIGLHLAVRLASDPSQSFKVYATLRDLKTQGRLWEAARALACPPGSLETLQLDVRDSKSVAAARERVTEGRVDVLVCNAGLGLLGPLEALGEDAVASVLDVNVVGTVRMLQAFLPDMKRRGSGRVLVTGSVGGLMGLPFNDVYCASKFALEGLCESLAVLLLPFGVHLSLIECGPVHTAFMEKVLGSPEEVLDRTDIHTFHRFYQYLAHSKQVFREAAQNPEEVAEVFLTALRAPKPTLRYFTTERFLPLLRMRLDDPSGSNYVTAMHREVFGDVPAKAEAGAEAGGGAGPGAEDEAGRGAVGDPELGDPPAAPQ
# Method: 17β-HSD1 Production and Isolation:
# Recombinant baculovirus was generated by the “Bac to Bac Expression System” (Invitrogen). Recombinant bacmid was transfected to Sd9 insect cells using “Cellfectin Reagent” (Invitrogen). 60 h later cells were harvested; the microsomal fraction was isolated as described by Puranen, T. J., Poutanen, M. H., Peltoketo, H. E., Vihko, P. T. and Vihko, R. K. (1994) Site-directed mutagenesis of the putative active site of human 17 β-hydroxysteroid dehydrogenase type 1. Biochem. J. 304: 289-293. Aliquots were stored frozen until determination of enzymatic activity.
# Assay—Inhibition of Recombinant Human 17β-HSD1:
# Recombinant protein (1 μg/ml) was incubated in 20 mM KH2PO4 pH 7.4 with 30 nM estrone (including 800.000 cpm/ml of ^3H-estrone) and 1 mM NADPH for 30 min at RT, in the presence of the potential inhibitor at concentrations 1 μM or 0.1 μM. Inhibitor stock solutions were prepared in DMSO. Final concentration of DMSO was adjusted to 1% in all samples. The enzyme reaction was stopped by addition of 10% trichloroacetic acid (final concentration). Samples were centrifuged in a microtiter plate at 4000 rpm for 10 min. Supernatants were applied to reverse phase HPLC on a Waters Symmetry C18 column, equipped with a Waters Sentry Guard column. Isocratic HPLC runs were performed at RT at a flow rate of 1 ml/min in acetonitrile:water 48:52 as running solvent. Radioactivity was monitored in the eluate by a Packard Flow Scintillation Analyzer. Total radioactivity for estrone and estradiol were determined in each sample and percent conversion of estrone to estradiol was calculated according to the following formula:
# (§1) Percent inhibition was calculated flowingly: % inhibition=100−% conversion
# [3] = biological target: T2, Recombinant Human 17β-HSD2 (Homo sapiens, UniProt P37059); test: Inhibition of recombinant human 17β-HSD2 (conversion of 3H-estradiol to estrone, HPLC); assay type: biochemical; details: inhibitor at 1 μM; 50 nM estradiol, 1 mM NADH, 30 min at RT; read-out: 17β-HSD2 Inhibition % at 1 μM
# T2 construct: made in house; host or cells: Sd9 (Sf9) insect cells, baculovirus (Bac to Bac Expression System)
# T2 sequence (P37059 1-387): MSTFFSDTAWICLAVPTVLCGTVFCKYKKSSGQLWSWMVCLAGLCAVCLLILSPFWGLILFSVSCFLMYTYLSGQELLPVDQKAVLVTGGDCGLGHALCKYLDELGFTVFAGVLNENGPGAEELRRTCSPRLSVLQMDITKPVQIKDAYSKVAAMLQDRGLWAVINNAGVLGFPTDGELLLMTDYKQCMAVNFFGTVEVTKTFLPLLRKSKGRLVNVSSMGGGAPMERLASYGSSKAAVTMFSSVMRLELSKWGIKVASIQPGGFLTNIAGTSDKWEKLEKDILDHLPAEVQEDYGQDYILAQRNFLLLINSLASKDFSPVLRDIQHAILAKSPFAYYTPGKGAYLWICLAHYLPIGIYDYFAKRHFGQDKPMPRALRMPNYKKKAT
# Method: 17β-HSD2 Production and Isolation:
# Similarly to 17β-HSD1 the Recombinant baculovirus was generated by the “Bac to Bac Expression System” (Invitrogen). Recombinant bacmid was transfected to Sd9 insect cells using “Cellfectin Reagent” (Invitrogen). 60 h later cells were harvested and supernatant were fractionated by the following protocol: • cells were dissolved into 40 ml of A-buffer (40 mM TRIS, pH8.0, 20% glycerol, 20 μM NAD, 0.4 mM PMSF, 150 mM NaCl, 0.5% dodecyl-β-maltoside+protease inhibitor cocktail) • cells were sonicated • lysate was incubated on ice for 15 min • lysate was centrifuged 5000 rpm 15 min, +4° C. • centrifugation of the supernatant 180.000 g 30 min, +4° C. • pellet was dissolved into 8 ml of A-buffer • not resuspended material was removed by centrifugation 5000 rpm 15 min, +4° C. • the clear supernatant was divided into 100 μl aliquots and were stored frozen until determination of enzymatic activity.
# The amount of 17β-HSD2 was analysed by immunoblotting and total protein concentration of each extract batch was determined.
# Assay—Inhibition of Recombinant Human 17β-HSD2:
# Recombinant protein (4 μg/ml) was incubated in 20 mM KH2PO4 pH 8.5 with 50 nM estradiol (including 800.000 cpm/ml of ^3H-estradiol) and 1 mM NADH for 30 min at RT, in the presence of the potential inhibitor at concentrations 1 μM or 0.1 μM. Inhibitor stock solutions were prepared in DMSO. Final concentration of DMSO was adjusted to 1% in all samples. The enzyme reaction was stopped by addition of 10% trichloroacetic acid (final concentration). Samples were centrifuged in a microtiter plate at 4000 rpm for 10 min. Supernatants were applied to reverse phase HPLC on a Waters Symmetry C18 column, equipped with a Waters Sentry Guard column. Isocratic HPLC runs were performed at RT at a flow rate of 1 ml/min in acetonitrile:water 48:52 as running solvent. Radioactivity was monitored in the eluate by a Packard Flow Scintillation Analyzer. Total radioactivity for estrone and estradiol were determined in each sample and percent conversion of estradiol to estrone was calculated according to the following formula:
# as §1
Structure (SMILES),"In vitro metabolic stability, % remaining after 60 min [1] [%]",inhibition at 1 µM [2] [%],inhibition at 1 µM [3] [%]
"CC(=O)O[C@H]1C[C@@H](CCC(=O)Nc2ncc(C)s2)C2C3CCc4cc(OC(=O)c5ccccc5)ccc4C3CC[C@@]21C (stereo partly drawn) [Compound 55, Benzoic acid (13S,15R,17S)-17-acetoxy-13-methyl-15-[2-(5-methylthiazol-2-ylcarbamoyl)-ethyl]-17-oxo-7,8,9,11,12,13,14,15,16,17-decahydro-6H-cyclopenta[a]phenanthren-3-yl ester]",47,–,–
"Cc1cnc(NC(=O)CC[C@@H]2CC(NC(C)C)[C@@]3(C)CCC4c5ccc(O)cc5CCC4C23)s1 (stereo partly drawn) [Compound 73, 3-[(13S,15R)-3-Hydroxy-17-isopropylamino-13-methyl-7,8,9,11,12,13,14,15,16,17-decahydro-6H-cyclopenta[a]phenanthren-15-yl]-N-(5-methylthiazol-2-yl)propionamide]",–,86,11
"Cc1cnc(NC(=O)CC[C@@H]2C[C@H](NCc3ccco3)[C@@]3(C)CCC4c5ccc(O)cc5CCC4C23)s1 (stereo partly drawn) [Compound 76, 3-((13S,15R)-17-[(Furan-2-ylmethyl)-amino]-3-hydroxy-13-methyl-7,8,9,11,12,13,14,15,16,17-decahydro-6H-cyclopenta[a]phenanthren-15-yl]-N-(5-methylthiazol-2-yl)propionamide]",–,85,4
"Cc1cnc(NC(=O)CC[C@@H]2CC(O)[C@@]3(C)CCC4c5ccccc5CCC4C23)s1 (stereo partly drawn) [Compound 67, 3-((13S,15R)-17-Hydroxy13-methyl-7,8,9,11,12,13,14,15,16,17-decahydro-6H-cyclopenta[a]phenanthren-15-yl)-N-(5-methylthiazol-2-yl)propanamide]",–,74,30
"COCCNC1C[C@@H](CCC(=O)Nc2ncc(C)s2)C2C3CCc4cc(O)ccc4C3CC[C@]12C (stereo partly drawn) [Compound 77, 3-((13S,15R)-3-Hydroxy-17-(2-methoxyethylamino)-13-methyl-7,8,9,11,12,13,14,15,16,17-decahydro-6H-cyclopenta[a]phenanthren-15-yl]-N-(5-methylthiazol-2-yl)propionamide]",–,84,1
"COCCNC1C[C@@H](CCC(=O)Nc2ncc(C)s2)C2C3CCc4cc(O)c(C(C)(C)C)cc4C3CC[C@]12C (stereo partly drawn) [Compound 79, 3-((13S,15R)-2-tert-Butyl-3-hydroxy-17-(2-methoxyethylamino)-13-methyl-7,8,9,11,12,13,14,15,16,17-decahydro-6H-cyclopenta[a]phenanthren-15-yl)-N-(5-methylthiazol-2-yl)propionamide]",–,75,17
CC(=O)O[C@H]1C[C@@H](CCC(=O)Nc2ncc(C)s2)C2C3CCc4cc(O)ccc4C3CC[C@@]21C (stereo partly drawn) [Compound 36],–,64,3
"Cc1cnc(NC(=O)CC[C@@H]2C[C@H](NCC(C)C)[C@@]3(C)CCC4c5ccc(O)cc5CCC4C23)s1 (stereo partly drawn) [Compound 74, 3-((13S,15R)-3-Hydroxy-17-isobutylamino-13-methyl-7,8,9,11,12,13,14,15,16,17-decahydro-6H-cyclopenta[a]phenanthren-15-yl]-N-(5-methylthiazol-2-yl)propionamide]",–,80,2
"Cc1cnc(NC(=O)CC[C@@H]2C[C@@](O)(CC#N)[C@@]3(C)CCC4c5ccc(O)cc5CCC4C23)s1 (stereo partly drawn) [Compound 24, 3-((13S,15R,17R)-17-(cyanomethyl)-3,17-dihydroxy-13-methyl-7,8,9,11,12,13,14,15,16,17-decahydro-6H-cyclopenta[a]phenanthren-15-yl)-N-(5-methylthiazol-2-yl)propanamide]",–,51,4
"COc1ccc2c(c1)CCC1C2CC[C@@]2(C)C1[C@H](CCC(=O)Nc1ncc(C)s1)C[C@@H]2O (stereo partly drawn) [Compound 6, 3-((13S,15R,17S)-17-Hydroxy-3-methoxy-13-methyl-7,8,9,11,12,13,14,15,16,17-decahydro-6H-cyclopenta[a]phenanthren-15-yl)-N-(5-methylthiazol-2-yl)propanamide]",–,58,3
"Cc1cnc(NC(=O)CC[C@@H]2C[C@H](OC(=O)CCC(=O)O)[C@@]3(C)CCC4c5ccc(O)cc5CCC4C23)s1 (stereo partly drawn) [Compound 43, Succinic acid mono-{(13S,15R,17S)-3-hydroxy-13-methyl-15-[2-(5-methylthiazol-2-ylcarbamoyl)-ethyl]-17-oxo-7,8,9,11,12,13,14,15,16,17-decahydro-6H-cyclopenta[a]phenanthren-17-yl}ester]",–,97,1
"Cc1cnc(NC(=O)CC[C@@H]2C[C@H](O)[C@@]3(C)CCC4c5cc(Br)c(O)c(Br)c5CCC4C23)s1 (stereo partly drawn) [Compound 28, 3-((13S,15R,17S)-2,4-dibromo-3,17-dihydroxy-13-methyl-7,8,9,11,12,13,14,15,16,17-decahydro-6H-cyclopenta[a]phenanthren-15-yl)-N-(5-methylthiazol-2-yl)propanamide]",–,91,15
"Cc1cnc(NC(=O)CC[C@@H]2CC(NCCCN(C)C)[C@@]3(C)CCC4c5ccc(O)cc5CCC4C23)s1 (stereo partly drawn) [Compound 80a, 3-[(13S,15R)-17-(3-Dimethylamino-propylamino)-3-hydroxy-13-methyl-7,8,9,11,12,13,14,15,16,17-decahydro-6H-cyclopenta[a]phenanthren-15-yl]-N-(5-methylthiazol-2-yl)propionamide]",–,70,1
"CC(=O)Oc1ccc2c(c1)CCC1C2CC[C@@]2(C)C1[C@H](CCC(=O)Nc1ncc(C)s1)C[C@@]2(O)C#N (stereo partly drawn) [Compound 22, (13S,15R,17S)-17-cyano-17-hydroxy-13-methyl-15-(3-((5-methylthiazol-2-yl)amino)-3-oxopropyl)-7,8,9,11,12,13,14,15,16,17-decahydro-6H-cyclopenta[a]phenanthren-3-yl acetate]",–,71,1
